Laboratory results reported in patent US20230241088A1, “COMPOSITION FOR PREVENTING OR TREATING LUNG CANCER COMPRISING ORTHO-TOPOLIN RIBOSIDE AS ACTIVE INGREDIENT” (CHUNG-ANG UNIVERSITY INDUSTRY-ACADEMY COOPERATION FOUNDATION, priority 2022, published 2023).

Experiments:
A549 cells [1] = experiment: BrdU cell proliferation assay; format: cell-based, Human
Protocol: The siRNA sequences for ERK1/2 (5′-CCCUGACCCGUCUAAUA-3′ SEQ ID NO: 1), AKT (5′-GAAGGAAGU CAUCGUGCCCAA-3′ SEQ ID NO: 2), and scrambled siRNA (SN-1001-CFG) were purchased from Bioneer (Daejeon, Korea). Cells were transfected with siRNA using Lipofectamine 3000 (Invitrogen, Carlsbad, Calif., USA) according to the manufacturer's instructions.
The 5-bromo-2-deoxyuridine (BrdU) cell proliferation assay was performed according to a previously described method. A549 cells (1×10^4) were grown to approximately 70-80% confluency in 96-well plates and treated with oTR (5, 10, and 50 μM) for 48 hours in the presence or absence of U0126, wortmannin, siERK1/2, and siAKT. Cell proliferation was measured using the Cell Proliferation ELISA, BrdU (colorimetric) kit (Roche Diagnostics, Penzberg, Germany), according to the manufacturer's instructions.

A549 cells [2] = experiment: Measurement of H2O2 content; format: cell-based, Human; conditions: oTR 5, 10, and 50 μM, 48 hours, dose-dependent
Protocol: A549 cells were seeded at a density of 2×10^5 cells/mL in a 6-well plate and treated with oTR (5, 10, and 50 μM) or an equal volume of DMSO (control) for 48 hours. H2O2 content was measured according to a previously described method with some modifications added. Briefly, the cell pellets were extracted with 1 mL of 0.1% TCAA, and the extracts were homogenized and centrifuged at 15,000×g at 4° C. for 10 minutes. Potassium phosphate buffer (10 mM; 0.5 mL) and 1 M KI (1 mL) were added to 0.5 mL of the supernatant. The mixture was then incubated for 15 minutes at room temperature in the dark and measured at 390 nm. For normalization, protein concentration was determined using Bio-Rad protein assay kit with BSA as a standard.

A549 cells [3] = experiment: Glycolytic function analysis (Seahorse XFe24, glycoPER); format: cell-based, Human; conditions: oTR 5, 10, and 50 μM, 48 hours, FIG. 5A
Protocol: Mitochondrial and glycolytic functions were assessed using Seahorse XFe24 analyzer (Agilent Technologies, Lexington, Mass., USA). A549 cells were seeded in a cell culture plate at a density of 1.5×10^4 cells/well. Cells were treated with oTR (5, 10, and 50 μM) for 48 hours after achieving approximately 70-80% confluency. The glycolytic and mitochondrial functions were determined by measuring the proton efflux rate (PER) and oxygen consumption rate (OCR), respectively. Glycolytic PER (glycoPER) was obtained by subtracting mitochondria-derived protons from the total PER. The analyses were conducted according to the manufacturer's instructions.
To investigate real-time changes in cellular metabolic functions, glycoPER (pmol H+/min) and OCR were analyzed (FIG. 5). GlycoPER reflects glycolytic functions, and OCR reflects mitochondrial respiration. […] Measurement of compensatory glycolysis was achieved by blocking oxidative phosphorylation using rotenone/antimycin.

NSCLC cells = experiment: MTT cell viability assay, NSCLC cells overall; format: cell-based, Human
Protocol: Human NSCLC cell lines A549, H1437, H2087, H522, and HCC827 were obtained from the Korean Cell Line Bank (KCLB, Seoul, Korea). These cells were cultured in RPMI-1640 medium (Gibco, N.Y., USA) supplemented with 10% FBS (Gibco) and 1% penicillin-streptomycin (HyClone Laboratories, Logan, Utah, USA). All cell lines were cultured under standard conditions (5% CO2, humid environment, 37° C.). A549 cells were seeded at a density of 1×10^4 cells/well and H1437, H2087, H522, HCC827, and MRCS cells at a density of 2×10^4 cells/well in 96-well plates and were cultured until cells reach approximately 70-80% confluency. The NSCLC cells were treated with plant hormones for 48 hours. Stock solution of each plant hormone was diluted with culture medium, wherein concentrations of DMSO, water, methanol, and ethanol in the culture medium were below 1% (v/v). The half-maximal inhibitory concentration (IC50) was calculated using CompuSyn software (ComboSyn Inc., Paramus, N.J., USA).
The inhibitory effect of plant hormones and their derivatives was investigated on 5 NSCLC cell lines (A549, H1437, H2087, H522, and HCC827). The NSCLC cells were treated with ABA, Cor, ethephon, GR-24, IAA, KR, MJ, N6b, N6i, oTR, and SS-HCS at concentrations of 0.1, 0.5, 1, 5, 10, 50, and 100 μM. Cell viability and IC50 values for 48 hours were investigated by performing the MTT assay.

[4] = test system: p-ERK, ERK, p-AKT, AKT, cleaved caspase-3 in NSCLC tumor tissue; experiment: Immunoblot analysis of NSCLC tumor tissue lysates; format: in vivo, nude mice (female, BALB/cSlc-nu/nu); conditions: FIG. 7
Protocol: The immunoblot analysis was carried out according to a previously described method. A549 cells (4×10^5) were grown to approximately 70-80% confluency and treated with oTR (5, 10, and 50 μM) for 48 hours. The cell lysates and tissue lysates were prepared and subjected to SDS-PAGE for immunoblotting with the respective antibodies. Anti-caspase-3 (9662), anti-p-AKT (4058), and anti-AKT (9272) antibodies were purchased from Cell Signaling Technology (Danvers, Mass., USA). Anti-ERK1/ERK2 (MAB1576) and anti-p-ERK1/ERK2 (AF1018) were purchased from R&D Systems (Minneapolis, Minn., USA). Anti-LC-III (NB100-2331) antibody was purchased from Novus Biologicals (Littleton, Colo., USA). Anti-β-actin (sc-47778) and anti-GAPDH (sc-47724) antibody was purchased from Santa Cruz Biotechnology (Santa Cruz, Calif., USA).

[5] = doses of 100 mg/kg or 150 mg/kg, previous study; cited from earlier work
[6] = oTR-treated NSCLC tumor tissues

SMILES: OC[C@H]1O[C@@H](n2cnc3c(NCc4ccccc4O)ncnc32)[C@H](O)[C@@H]1O [oTR, ortho topolin riboside]
- antiproliferative effect of oTR in presence of ERK inhibitors (U0126) or AKT inhibitors (wortmannin) (A549 cells [1]; U0126 (20 μM) or wortmannin (5 μM), FIG. 6D): significantly weakened
- cell proliferation (BrdU) (A549 cells [1]; oTR 5, 10, and 50 μM, 48 hours, dose-dependent, FIG. 6A): significantly inhibited
- oTR-induced antiproliferative activity in ERK or AKT knockdown cells (A549 cells [1]; siERK 1/2 (200 nM) or siAKT (200 nM), FIG. 6D): significantly inhibited
- H2O2 content (A549 cells [2]): significantly increased
- basal and compensatory glycolytic rates (glycoPER) (A549 cells [3]): significant decrease
- viability of NSCLC cells (NSCLC cells; 48 hours of oTR treatment, FIG. 1): reduced
- IC50 values compared among all tested plant hormones and derivatives (NSCLC cells; 48 hours, MTT assay): lowest IC50 values
- expression of cleaved caspase-3 ([4]; oTR (150 mg/kg)-treated group): significantly increased
- ERK expression [4, 6]: significant increase
- p-AKT and AKT expressions [4, 6]: no significant changes
- p-ERK expression [4, 6]: significant decrease
- acute toxicity [5]: no acute toxicity
